Earlier results on 3 compounds are cited in patent publication US20230364026A1, “[…] NANOPARTICLE FORMULATIONS OF CANNABINOIDS AND C[…] WITH REDUCED OSTWALD RIPENING FOR ORAL, INHALATION, NASAL AND […] DELIVERY” (Luminus Biosciences, Inc., priority 2020, published 2023).

For data set [1] the following is noted: pH values ranging from 1.2 to 7.0.
For data set [2] the following is noted: administered orally, human gastrointestinal tract.
For data set [3] the following is noted: self-experiment, compared to THC.

`CCCCCCC(C)(C)c1cc(O)c2c(c1)OC(C)(C)C1CCC(=O)CC21` (racemic) [Nabilone, (±)-trans-3-(1,1-dimethylheptyl)-6,6a,7,8,10,10a-hexahydro-1-hydroxy-6-6-dimethyl-9H-dibenzo[b,d] pyran-9-one]: in data set [1], the solubility in water result is “less than 0.5 mg/L”. Further, the oral absorption entry in data set [2] was “completely absorbed”.

`CCCCCCCC(C)(C)c1ccc([C@H]2CCC[C@@H](O)C2)c(O)c1` [CP 47,497-C8]: the “duration of effects in humans” value in data set [3] is 5 to 6 h.

Consider `CCCCCn1cc(C(=O)c2cccc3ccccc23)c2ccccc21` [JWH-018], for which the “duration of effects in humans” value in data set [3] was 1 to 2 h.
